# Test results published in the NIST ThermoML archive (doi:10.1016/j.fluid.2019.01.028).
# Numbers after ± are expanded uncertainties.
# Test: activity coefficient (dimensionless); of the first substance listed, at infinite dilution; xn = mol fraction of the nth substance listed
# Details: Liquid, Chromatography, x1 = 0
SMILES,activity coefficient (313 K),activity coefficient (323 K),activity coefficient (333 K),activity coefficient (343 K),activity coefficient (353 K)
"Cc1ccc(C)o1 [2,5-dimethylfuran] + CCCC[n+]1ccn(C)c1.O=S(=O)([N-]S(=O)(=O)C(F)(F)F)C(F)(F)F",1.83 ± 0.16,1.85 ± 0.16,1.86 ± 0.16,1.88 ± 0.17,1.88 ± 0.17
"Cc1ccc(C)o1 [2,5-dimethylfuran] + CCCCn1cc[n+](C)c1.[Cl-]",9.51 ± 0.87,9.6 ± 0.88,9.61 ± 0.88,9.64 ± 0.89,9.76 ± 0.9
CCc1ccco1 [2-ethylfuran] + CCCC[n+]1ccn(C)c1.O=S(=O)([N-]S(=O)(=O)C(F)(F)F)C(F)(F)F,1.47 ± 0.13,1.49 ± 0.13,1.51 ± 0.13,1.52 ± 0.13,1.54 ± 0.13
CCc1ccco1 [2-ethylfuran] + CCCCn1cc[n+](C)c1.[Cl-],5.85 ± 0.54,6 ± 0.55,6.12 ± 0.56,6.23 ± 0.57,6.41 ± 0.59
Cc1ccco1 [2-methylfuran] + CCCC[n+]1ccn(C)c1.O=S(=O)([N-]S(=O)(=O)C(F)(F)F)C(F)(F)F,1.1 ± 0.09,1.12 ± 0.1,1.15 ± 0.1,1.17 ± 0.1,1.18 ± 0.1
Cc1ccco1 [2-methylfuran] + CCCCn1cc[n+](C)c1.[Cl-],3.61 ± 0.33,3.76 ± 0.35,3.84 ± 0.35,3.96 ± 0.36,4.08 ± 0.37
c1ccccc1 [benzene] + CCCC[n+]1ccn(C)c1.O=S(=O)([N-]S(=O)(=O)C(F)(F)F)C(F)(F)F,0.938 ± 0.08,0.957 ± 0.081,0.975 ± 0.083,0.99 ± 0.084,1.01 ± 0.09
c1ccccc1 [benzene] + CCCCn1cc[n+](C)c1.[Cl-],4.09 ± 0.38,4.14 ± 0.38,4.15 ± 0.38,4.15 ± 0.38,4.12 ± 0.38
Clc1ccccc1 [chlorobenzene] + CCCC[n+]1ccn(C)c1.O=S(=O)([N-]S(=O)(=O)C(F)(F)F)C(F)(F)F,1.5 ± 0.13,1.52 ± 0.13,1.53 ± 0.13,1.54 ± 0.13,1.54 ± 0.13
Clc1ccccc1 [chlorobenzene] + CCCCn1cc[n+](C)c1.[Cl-],3.41 ± 0.31,3.58 ± 0.33,3.71 ± 0.34,3.82 ± 0.35,3.96 ± 0.36
CCO [ethanol] + CCCC[n+]1ccn(C)c1.O=S(=O)([N-]S(=O)(=O)C(F)(F)F)C(F)(F)F,1.6 ± 0.14,1.48 ± 0.13,1.37 ± 0.12,1.28 ± 0.11,1.2 ± 0.1
CCO [ethanol] + CCCCn1cc[n+](C)c1.[Cl-],,0.208 ± 0.032,0.213 ± 0.032,0.22 ± 0.032,0.229 ± 0.033
CCc1ccccc1 [ethylbenzene] + CCCC[n+]1ccn(C)c1.O=S(=O)([N-]S(=O)(=O)C(F)(F)F)C(F)(F)F,1.98 ± 0.18,2.01 ± 0.18,2.01 ± 0.18,2.05 ± 0.18,2.07 ± 0.18
CCc1ccccc1 [ethylbenzene] + CCCCn1cc[n+](C)c1.[Cl-],12.5 ± 1.2,12.5 ± 1.2,12.4 ± 1.1,12.4 ± 1.1,12.4 ± 1.1
c1ccoc1 [furan] + CCCC[n+]1ccn(C)c1.O=S(=O)([N-]S(=O)(=O)C(F)(F)F)C(F)(F)F,0.678 ± 0.06,0.695 ± 0.061,0.711 ± 0.063,0.727 ± 0.064,0.739 ± 0.065
c1ccoc1 [furan] + CCCCn1cc[n+](C)c1.[Cl-],1.41 ± 0.13,1.48 ± 0.13,1.56 ± 0.14,1.66 ± 0.15,1.75 ± 0.16
CO [methanol] + CCCC[n+]1ccn(C)c1.O=S(=O)([N-]S(=O)(=O)C(F)(F)F)C(F)(F)F,1.26 ± 0.11,1.21 ± 0.1,1.09 ± 0.09,1.06 ± 0.09,1.03 ± 0.09
CO [methanol] + CCCCn1cc[n+](C)c1.[Cl-],,0.1 ± 0.03,0.104 ± 0.03,0.109 ± 0.03,0.115 ± 0.03
CCCO [propan-1-ol] + CCCC[n+]1ccn(C)c1.O=S(=O)([N-]S(=O)(=O)C(F)(F)F)C(F)(F)F,1.94 ± 0.17,1.77 ± 0.16,1.63 ± 0.14,1.51 ± 0.13,1.4 ± 0.12
CCCO [propan-1-ol] + CCCCn1cc[n+](C)c1.[Cl-],,,0.286 ± 0.035,0.292 ± 0.036,0.301 ± 0.036
Cc1ccccc1 [toluene] + CCCC[n+]1ccn(C)c1.O=S(=O)([N-]S(=O)(=O)C(F)(F)F)C(F)(F)F,1.31 ± 0.11,1.34 ± 0.12,1.37 ± 0.12,1.39 ± 0.12,1.42 ± 0.12
Cc1ccccc1 [toluene] + CCCCn1cc[n+](C)c1.[Cl-],7.19 ± 0.66,7.24 ± 0.67,7.23 ± 0.66,7.3 ± 0.67,7.38 ± 0.68
